Results reported in ChEMBL document CHEMBL1132622, “Synthesis, structure-activity relationships, and in vivo evaluations of substituted di-tert-butylphenols as a novel class of potent, selective, and orally active cyclooxygenase-2 inhibitors. 2. 1,3,4- and 1,2,4-thiadiazole series” (J Med Chem, 1999).

Assays:
[1] = target: T1, Prostaglandin G/H synthase 1 (Ovis aries) (UniProt P05979); assay: IC50 value against ovine Prostaglandin G/H synthase 1 at 10 uM
T1 sequence (whole entry): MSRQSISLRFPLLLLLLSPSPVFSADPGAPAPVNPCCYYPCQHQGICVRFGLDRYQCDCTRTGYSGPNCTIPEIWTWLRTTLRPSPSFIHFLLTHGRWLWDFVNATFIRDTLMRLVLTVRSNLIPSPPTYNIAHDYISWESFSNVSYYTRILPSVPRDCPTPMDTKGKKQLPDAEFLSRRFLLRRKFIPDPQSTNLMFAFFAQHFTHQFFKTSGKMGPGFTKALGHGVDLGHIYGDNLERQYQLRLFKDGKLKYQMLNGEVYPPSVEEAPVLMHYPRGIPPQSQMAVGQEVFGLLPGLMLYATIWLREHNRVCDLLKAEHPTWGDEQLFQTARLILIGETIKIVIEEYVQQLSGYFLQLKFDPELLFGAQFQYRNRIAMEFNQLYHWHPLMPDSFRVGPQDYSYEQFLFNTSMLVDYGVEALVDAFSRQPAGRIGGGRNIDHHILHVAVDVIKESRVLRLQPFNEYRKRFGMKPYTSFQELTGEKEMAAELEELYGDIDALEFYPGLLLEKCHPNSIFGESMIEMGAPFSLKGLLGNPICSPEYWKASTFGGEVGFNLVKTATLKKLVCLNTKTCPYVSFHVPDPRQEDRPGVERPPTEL

[2] = target: T2, Prostaglandin G/H synthase 2 (Homo sapiens) (UniProt P35354); assay: IC50 value against recombinant human Prostaglandin G/H synthase 2 at 10 uM
T2 sequence (whole entry): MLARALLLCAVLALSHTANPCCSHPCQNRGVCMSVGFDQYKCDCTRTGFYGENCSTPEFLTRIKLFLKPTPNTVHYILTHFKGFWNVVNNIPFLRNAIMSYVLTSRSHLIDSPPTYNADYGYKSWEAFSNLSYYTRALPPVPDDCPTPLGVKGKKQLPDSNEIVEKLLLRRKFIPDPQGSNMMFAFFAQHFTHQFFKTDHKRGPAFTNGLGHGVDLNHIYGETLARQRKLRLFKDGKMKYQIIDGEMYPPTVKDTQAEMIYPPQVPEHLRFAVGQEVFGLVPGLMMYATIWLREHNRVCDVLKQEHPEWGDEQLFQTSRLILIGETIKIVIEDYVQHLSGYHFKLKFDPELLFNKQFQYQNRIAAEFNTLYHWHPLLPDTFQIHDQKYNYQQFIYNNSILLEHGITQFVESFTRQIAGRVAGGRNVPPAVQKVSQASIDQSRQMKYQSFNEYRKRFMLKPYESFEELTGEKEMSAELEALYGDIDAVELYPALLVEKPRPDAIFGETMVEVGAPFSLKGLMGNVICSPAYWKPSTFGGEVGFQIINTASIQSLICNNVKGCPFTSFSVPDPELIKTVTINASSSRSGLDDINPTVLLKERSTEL

[3] = target: T3, Prostaglandin G/H synthase 2 (Mus musculus, UniProt Q05769)
T3 sequence (Q05769 whole entry): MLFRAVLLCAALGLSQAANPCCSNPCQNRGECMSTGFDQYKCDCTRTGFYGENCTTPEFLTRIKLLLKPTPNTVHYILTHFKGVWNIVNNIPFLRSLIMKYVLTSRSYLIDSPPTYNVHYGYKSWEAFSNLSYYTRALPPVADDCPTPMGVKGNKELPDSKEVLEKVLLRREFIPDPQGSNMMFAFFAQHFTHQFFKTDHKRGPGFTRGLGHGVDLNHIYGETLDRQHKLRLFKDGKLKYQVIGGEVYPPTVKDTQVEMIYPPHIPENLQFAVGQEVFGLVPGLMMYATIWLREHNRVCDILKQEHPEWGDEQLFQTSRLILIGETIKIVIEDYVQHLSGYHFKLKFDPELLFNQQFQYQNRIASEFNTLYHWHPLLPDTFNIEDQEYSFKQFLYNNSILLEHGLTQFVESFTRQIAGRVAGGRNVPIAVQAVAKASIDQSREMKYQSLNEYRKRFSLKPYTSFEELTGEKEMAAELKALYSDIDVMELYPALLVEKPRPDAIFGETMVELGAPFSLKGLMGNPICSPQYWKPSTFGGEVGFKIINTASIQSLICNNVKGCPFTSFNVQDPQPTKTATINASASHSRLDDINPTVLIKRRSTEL

Rattus norvegicus [4] = species: Rattus norvegicus; assay: Lesion frequency was measured in rats.; format: functional
Rattus norvegicus [5] = species: Rattus norvegicus; assay: Percentage inhibition of the prostaglandin synthesis was measured in rats.; format: functional
[6] = target: Prostaglandin G/H synthase 1 (Homo sapiens, UniProt P23219); assay: IC50 value against Prostaglandin G/H synthase 1 of human platelet rich plasma; format: cell-free
Prostaglandin G/H synthase 1 (Homo sapiens, UniProt P23219), sequence (P23219 whole entry): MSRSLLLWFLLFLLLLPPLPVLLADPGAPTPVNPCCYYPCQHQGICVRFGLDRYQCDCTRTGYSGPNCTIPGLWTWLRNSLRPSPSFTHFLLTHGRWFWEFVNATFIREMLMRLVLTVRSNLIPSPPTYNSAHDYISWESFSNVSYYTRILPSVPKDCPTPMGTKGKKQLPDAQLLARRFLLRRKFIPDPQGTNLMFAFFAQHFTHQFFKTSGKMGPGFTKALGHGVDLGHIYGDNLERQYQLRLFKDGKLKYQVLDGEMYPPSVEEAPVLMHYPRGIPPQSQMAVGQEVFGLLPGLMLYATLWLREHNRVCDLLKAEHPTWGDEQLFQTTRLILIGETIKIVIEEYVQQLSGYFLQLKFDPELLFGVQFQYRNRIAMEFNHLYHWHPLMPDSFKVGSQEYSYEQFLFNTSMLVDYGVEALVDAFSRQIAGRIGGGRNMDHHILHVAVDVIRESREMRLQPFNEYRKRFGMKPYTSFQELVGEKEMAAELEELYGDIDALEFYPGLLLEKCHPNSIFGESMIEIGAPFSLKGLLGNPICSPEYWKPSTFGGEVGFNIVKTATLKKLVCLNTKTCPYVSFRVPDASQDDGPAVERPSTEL

Rattus norvegicus [7] = species: Rattus norvegicus; assay: ED50 was measured by hyperalgesia assay method.; format: functional
[8] = target: T4, Prostaglandin G/H synthase 2 (Homo sapiens, UniProt P35354); assay: Inhibition of recombinant human prostaglandin G/H synthase 2 (COX-2)
T4 sequence (P35354 whole entry): T2 sequence (whole entry)

Rattus norvegicus [9] = species: Rattus norvegicus; assay: Percentage of gastric damage was measured in rats.; format: functional, Stomach
[10] = target: T5, Prostaglandin G/H synthase 1 (Ovis aries, UniProt P05979); assay: IC50 value against ovine Prostaglandin G/H synthase 1
T5 sequence (P05979 whole entry): T1 sequence (whole entry)

Rattus norvegicus [11] = species: Rattus norvegicus; assay: ED50 was measured by CFE assay method.; format: functional
[12] = target: T3, Prostaglandin G/H synthase 2; assay: IC50 value against Prostaglandin G/H synthase 2 of murine J774A.1 cell line
[13] = target: T1, Prostaglandin G/H synthase 1 (Ovis aries); assay: IC50 value against ovine Prostaglandin G/H synthase 1 at 30 uM

| SMILES | inhibition [1] [%] | inhibition [2] [%] | IC50 [3] [µM] | Lesion frequency (Rattus norvegicus [4]) [%] | Inhibition (Rattus norvegicus [5]) [%] | IC50 [6] [µM] | ED50 (Rattus norvegicus [7]) [mg/kg] | IC50 [8] [µM] | Damaged area (Rattus norvegicus [9]) [%] | IC50 [10] [µM] | ED50 (Rattus norvegicus [11]) [mg/kg] | IC50 [12] | inhibition [13] [%] |
| --- | --- | --- | --- | --- | --- | --- | --- | --- | --- | --- | --- | --- | --- |
| CSc1nnc(-c2cc(C(C)C)c(O)c(C(C)C)c2)s1 | 25 | 14 | > 20 |  |  |  |  |  |  |  |  |  |  |
| CC(C)(C)c1cc(-c2nsc(NC#N)n2)cc(C(C)(C)C)c1O |  |  | 0.026 | 87.5 | 87.7 | 1.2 | 0.2 | 0.047 | 4.91 | 32 | 5.8 |  |  |
| CS(=O)(=O)Nc1ccc([N+](=O)[O-])cc1OC1CCCCC1 [NS-398] |  |  |  | 0 | 30.7 |  | 7.4 |  | 0 |  | 0.61 |  |  |
| CC(C)(C)c1cc(-c2nnc(NC#N)s2)cc(C(C)(C)C)c1O |  |  |  | 12.5 | 22 | 3.6 | 1.3 | > 20 | 0.02 | > 20 | 7.7 | Not Active |  |
| CSc1nc(-c2cc(C(C)(C)C)c(O)c(C(C)(C)C)c2)ns1 | 16 | 20 | 0.26 |  |  | 3.6 |  |  |  |  |  |  |  |
| CC(C)(C)c1cc(-c2nnc(N)s2)cc(C(C)(C)C)c1O |  |  | 0.11 |  |  | 0.53 |  | 3.5 |  |  |  |  | 34 |
| CC(C)(C)c1cc(-c2nnc(N=C(N)N)o2)cc(C(C)(C)C)c1O |  |  | 0.33 |  |  | 2.8 |  | 23 |  |  |  |  | 16 |
| CCSc1nnc(-c2nc(C(C)(C)C)c(O)c(C(C)(C)C)n2)s1 | 39 |  | 0.018 |  |  | 0.68 |  | 2 |  |  |  |  |  |
